Where no end group is shown, it is not given here.

11 substances from publication PMC12650144, “Interactive Role of the DHPR β1a SH3 Domain in Skeletal Muscle Excitation–Contraction Coupling” (Biomolecules, 2025) can be followed below.

The target in assay [1] is T1, DHPR β1a subunit (full-length, β1a-FL) (Mus musculus, UniProt Q8R3Z5).
T1 construct: full-length β1a (β1a-FL); polyhistidine-tagged ubiquitin (N, cleaved yes); made in house; host or cells: Escherichia coli BL21
As to the kind of experiment: Tryptophan fluorescence quenching binding to full-length β1a. Particulars: excitation 280 nm, emission 340 nm, full-length β1a titrated with loop/peptide, nonlinear regression, read-out: Binding affinity to β1a subunit (Kd). Here is the method:
(§1) The mouse β1a and β2a subunits (NCBI reference sequences—NM_031173 and NM_023116), the β1a-SH3 domain (β1a residues V101-P272), and the α1s II-III loop (NCBI reference sequence—X05921, residues E666-L791) were amplified by PCR. Each PCR product was cloned in-frame downstream of a polyhistidine-tagged ubiquitin sequence in the plasmid pHUE [27]. The plasmids were transferred into Escherichia coli BL21, and expression of fusion protein was induced by addition of 0.1 mM IPTG (isopropyl β-D-1thiogalactoside) to the culture medium. The His-tagged proteins were purified by chromatography on Ni-agarose. Ubiquitin was removed from the N-terminal end of the recombinant proteins by digestion with a His-tagged ubiquitin-dependant protease. The recombinant β-subunit proteins and the II-III loop were further purified by preparative electrophoresis using a Bio-Rad model 491 prep cell. The final samples were dialysed into a buffer containing 50 mM sodium phosphate pH 8 and 300 mM NaCl (buffer A) and stored at −70 °C.
(§2) Equilibrium dissociation constants for β1a and β2a subunit and β1a-SH3 domain binding to the α1s II-III loop and its peptides were determined with a Perkin-Elmer LS 50B6 Spectrofluorimeter. Changes in the intrinsic fluorescence of the tryptophan residues of the β1a subunit or the β1a-SH3 domain was monitored while titrating the α1s II-III loop or its peptides. Excitation was at 280 nm, and fluorescence emission was monitored at 340 nm. Data was corrected for dilution effects and for intrinsic fluorescence of the II-III loop or its peptides and fitted with nonlinear regression using GraphPad Prism software (6.0), as previously described.

Assay [2] addresses T2, β1a-SH3 domain (residues 101–272) (Mus musculus, UniProt Q8R3Z5).
T2 construct: The β1a SH3 protein (residues V101-P272) was purified by IMAC; polyhistidine-tagged ubiquitin (N, cleaved yes); made in house; host or cells: Escherichia coli BL21
As to the kind of experiment: Tryptophan fluorescence quenching binding to β1a SH3 domain. Particulars: excitation 280 nm, emission 340 nm, refolded β1a-SH3, read-out: Binding affinity to β1a–SH3 domain (residues 101–272) (Kd). Here is the method:
as §1
The β1a SH3 protein (residues V101-P272) was purified by IMAC (immobilized metal affinity chromatography) under denaturing conditions (6M guanidinium HCl) using Ni-NTA resin. The purity of the protein was assessed by SDS page gels (Supplementary Figure S1). The purified protein was then refolded by dialysing against buffer A, and the folded structure was checked by circular dichroism (Supplementary Figure S2). The purified and refolded protein was stored (−70 °C) at concentrations of ~1μM. It was not possible to directly assess the aggregation state of the β1a SH3 protein construct at 1μM as the SEC UV peak absorbance was below detectable levels.
as §2

Assay [3] concerns the target α1s C (α1s II-III loop C region peptide, residues 720–765). The assay is described as follows: Fluorescence binding of β isoforms and chimeras to α1s C peptide. The conditions noted are these: β construct titrated with α1s C peptide. Here is the method: as §1, with “The recombinant β-subunit proteins and the II-III loop were further purified by preparative electrophoresis using a Bio-Rad model 491 prep cell. The final samples were dialysed into a buffer containing 50 mM sodium phosphate pH 8 and 300 mM NaCl (buffer A) and stored at −70 °C.” left out
as §2

Assay [4] deals with L-type Ca2+ current (DHPR channel) in β-null myotubes. As to the kind of experiment: L-type Ca2+ current, whole-cell patch clamp in cultured myotubes. Format: cell-based, mouse. The conditions noted are these: mean ± SE. Here is the method: All animal procedures were carried out in accordance with the guidelines of Harvard Medical Area Standing Committee on Animals under experimental protocol number 2589, approved on 01 Sept 2014. Primary myoblasts from DHPRβ1a-null mouse skeletal muscles were isolated from the hindlimb of neonatal mice, as described elsewhere. Stably transduced cell lines were then obtained by infection of primary β-null myoblasts with virion particles carrying the β1a genes at a multiplicity of infection (MOI) of 0.5 and then selected with […] Puromycin for 2 weeks, as described previously. Cells expressing mouse Wtβ1a or β1a-loop chimera subunit were then grown and differentiated in 96-well plates, as described previously. Calcium imaging was performed 5–6 days after differentiation in myotubes loaded with 5μM Fura-2-AM or 2μM Fluo-4 (Molecular Probes) in imaging buffer (125 mM NaCl, 5 mM KCl, 2 mM CaCl2, 1.2 mM MgSO4, 6 mM glucose, and 25 mM HEPES-Tris, pH 7.4). Cell membrane depolarization was performed by 5s of perfusion with 5–7 volumes of imaging buffer containing increasing concentrations of KCl. To preserve osmolarity of the depolarization buffer, the increased K concentration was compensated with an equivalent reduction in total NaCl concentration. Sarcoplasmic reticulum Ca^2+ content of Fura-2-AM-loaded cultured myotubes was estimated from the peak fluorescent amplitude of the Ca^2+ transient induced by 40 mM caffeine stimulation in the presence of 1μM thapsigargin (Tg) and in the absence of extracellular Ca^2+ [34, 35]. Extracellular Ca^2+ entry at rest was estimated from the rate of dye quench by Mn^2+ entry in myotubes loaded with 5μM Fura-2-AM in the presence and in the absence of 10μM KB-R7943 (glycerol, 2-(2-(4-(4-nitrobenzyloxy) phenyl)ethyl)-isothiourea methane sulfonate), as described previously. Cells were then imaged at 360 nm (5 nm) with an intensified 10-bit digital CCD camera (XR-Mega-10, Stanford Photonics, Stanford, CA, USA) using aDG4 multiwavelength light source. Fura-2 images were acquired with a 40 objective (Olympus, UApo/340), and fluorescent emission at 510 nm was then captured from regions of interest within each myotube at 33 frames/s using Piper-controlled acquisition software (Stanford Photonics) and is expressed as the ratio of signal collected at alternating 340 nm/380 nm excitation wavelengths. […] Fluo-4 fluorescent images were acquired using a 60 objective, and emission at 510 nm was then collected from regions of interest from individual cells excited at 490 nm and is expressed as arbitrary fluorescent units.
The macroscopic Ca^2+ current was determined using the same equipment and protocols previously described (PMID: 29212769). […]

Assay [5] concerns DHPRβ1a-null myotubes expressing β1a constructs. As to the kind of experiment: Depolarization (KCl)-induced Ca2+ release in Fura-2-loaded myotubes. Type of assay: cell-based, mouse. Particulars: Fura-2-AM-loaded myotubes expressing the construct; sigmoidal dose–response fit. Here is the method: All animal procedures were carried out in accordance with the guidelines of Harvard Medical Area Standing Committee on Animals under experimental protocol number 2589, approved on 01 Sept 2014. Primary myoblasts from DHPRβ1a-null mouse skeletal muscles were isolated from the hindlimb of neonatal mice, as described elsewhere. Stably transduced cell lines were then obtained by infection of primary β-null myoblasts with virion particles carrying the β1a genes at a multiplicity of infection (MOI) of 0.5 and then selected with […] Puromycin for 2 weeks, as described previously. Cells expressing mouse Wtβ1a or β1a-loop chimera subunit were then grown and differentiated in 96-well plates, as described previously. […] Fura-2 images were acquired with a 40 objective (Olympus, UApo/340), and fluorescent emission at 510 nm was then captured from regions of interest within each myotube at 33 frames/s using Piper-controlled acquisition software (Stanford Photonics) and is expressed as the ratio of signal collected at alternating 340 nm/380 nm excitation wavelengths. […] Fluo-4 fluorescent images were acquired using a 60 objective, and emission at 510 nm was then collected from regions of interest from individual cells excited at 490 nm and is expressed as arbitrary fluorescent units.

T1 sequence (Q8R3Z5 1-524 isoform Q8R3Z5-4): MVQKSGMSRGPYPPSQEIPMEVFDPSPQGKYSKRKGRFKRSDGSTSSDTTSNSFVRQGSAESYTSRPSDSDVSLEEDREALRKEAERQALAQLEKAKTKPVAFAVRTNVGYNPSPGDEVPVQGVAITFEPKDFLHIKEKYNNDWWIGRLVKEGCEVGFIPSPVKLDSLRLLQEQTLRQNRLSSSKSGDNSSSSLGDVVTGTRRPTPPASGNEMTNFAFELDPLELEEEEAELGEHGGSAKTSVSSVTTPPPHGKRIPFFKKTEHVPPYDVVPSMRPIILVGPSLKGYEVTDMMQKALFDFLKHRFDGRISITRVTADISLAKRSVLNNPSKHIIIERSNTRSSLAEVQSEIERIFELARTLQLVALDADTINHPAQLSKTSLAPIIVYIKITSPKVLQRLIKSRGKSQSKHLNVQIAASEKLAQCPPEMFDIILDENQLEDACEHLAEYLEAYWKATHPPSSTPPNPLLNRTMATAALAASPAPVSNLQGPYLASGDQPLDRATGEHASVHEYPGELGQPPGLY
T2 sequence (Q8R3Z5 101-272 isoform Q8R3Z5-4): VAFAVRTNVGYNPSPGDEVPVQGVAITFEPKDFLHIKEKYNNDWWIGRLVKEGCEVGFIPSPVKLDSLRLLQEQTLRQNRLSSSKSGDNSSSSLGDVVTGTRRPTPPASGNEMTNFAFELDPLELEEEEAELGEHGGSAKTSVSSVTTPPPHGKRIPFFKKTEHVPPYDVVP

For the substance “DEPEIPVSPRPRPLAEL [α1s C binding peptide 2 (sP2)]”, the values for the Kd in assay [1] and in assay [2] were 5.4 ± 0.9 µM and 3.8 ± 0.2 µM, respectively.

Regarding “EEPEMPVGPRPRPLSEL [α1c C binding peptide 2 (cP2)]”, the Kd – broadly, the constant that tells how readily two partners part at equilibrium – in assay [1] worked out at 4.6 ± 0.3 µM; in assay [2], 3.6 ± 0.3 µM.

Take “KDPYPSADFPGDD [α1s C binding peptide 1 (sP1)]”: the figures for the Kd in assay [1] and in assay [2] were 3.6 ± 0.2 µM and 2.6 ± 0.4 µM, respectively.

As for KDPYPSADFPGED [sP1 D⟶E mutant], the Kd stood at 15 ± 2 µM in assay [1] and 17 ± 1 µM in assay [2].

With KDPYPSADFTGDD [sP1 P⟶T mutant], the Kd was 22 ± 2 µM in assay [1] and 19 ± 2 µM in assay [2].

As for KDPYPSADTPGDD [sP1 F⟶T mutant], the results for the Kd in assay [1] and in assay [2] were 4.6 ± 0.4 µM and 4.6 ± 0.3 µM, respectively.

Turning to KDPYPSPDFPGDD [sP1 A⟶P mutant], the Kd in assay [1] turned out to be 4.5 ± 0.3 µM; in assay [2], 2.3 ± 0.2 µM.

Turning to “KSPYPNPETTGEE [α1c C binding peptide 1 (cP1)]”, the results for the dissociation constant Kd in assay [1] and in assay [2] were 14 ± 2 µM and 19 ± 4 µM, respectively.

As for “LKVDEFESNVNEVKDPYPSADFPGDDEEDEPEIPVSPRPRPLAELQ [α1s II–III loop C region (α1s C)]”, in assay [2], the Kd was determined as 3.6 ± 0.6 µM.

Turning to “β1a: full-length mouse DHPR β1a subunit; recombinant or expressed in β-null myotubes”, the Kd in assay [3] stood at 4.9 ± 0.6 µM. Moreover, the V1/2 in assay [4] (potential at which G = 1/2 Gmax, n = 22 / 21) is on record as 14.7 ± 0.88 mV. The Vr in assay [4] (reversal potential, n = 22 / 21) turned out to be 84.8 ± 0.35 mV. Further, the k in assay [4] (slope parameter, n = 22 / 21) worked out at 6.0 ± 0.17 mV. The same substance gave a Gmax in assay [4] (β-null myotubes expressing the construct, external 10 mM CaCl2, n = 22 (Wt-β1a), n = 21 (β1a-RT loop)) of 453 ± 33.0 pS/pF. Moreover, a half-maximal response in assay [5] (EC50) required 6.68 ± 0.45 mM.

Regarding “β2a: mouse DHPR β2a (cardiac isoform) subunit, recombinant”, the “Kd for binding to α1s C” value in assay [3] is recorded as “no measurable binding”.
